Reference: patent US20160346249A1 (priority 2012, published 2016)
Read-outs that look alike come from different tables or passages of the source.

Key:
[1] = 13-week rat toxicity and toxicokinetic study; type: in vivo; settings: for AUC(0-t): read-out: AUC0-24
Procedure: In two separate experiments, toxicology and toxicokinetic studies were performed. […] Blood samples were collected on Day 0 and Day 87 of the study from up to 3 animals/gender/group.
For toxicology assessment, clinical observations, body weight and food consumptions measures were noted periodically during the study. At termination, clinical pathology evaluations (hematology and serum chemistry) were performed, necropsies conducted, selected organs were weighed, and selected tissues examined microscopically.

[2] = Rabbit developmental toxicity study with toxicokinetics; settings: female, New Zealand white, in vivo; for AUC(0-t) / Cmax / Tmax: pregnant rabbits; for AUC(0-t): GD 20, read-out: AUC0-24; for Cmax / Tmax: GD 20
Procedure: For the toxicology assessment, 27-33 per rabbits per group were dosed.
On GD 29, a laparohysterectomy was performed on each surviving female.

[3] = Female rat fertility study
Procedure: Physical signs, body weight, and food consumption were recorded periodically. Females were housed for up to 20 nights 1:1 with untreated males following 3 weeks of treatment. During cohabitation, vaginal lavages were performed daily. The presence of sperm in the lavage or a vaginal plug was considered positive evidence of mating. […] The day of confirmed mating was considered GD 0. Females with a confirmed mating were euthanized between GD 15 and 17. The uterus of each female was examined to determine pregnancy status. If there was no gross evidence of pregnancy, the uterus was stained with ammonium sulfide to visualize any early implantation sites. Corpora lutea per female were counted. Uterine implantations were counted, and each was classified as a live fetus, dead fetus, or a resorption. Fetuses were euthanized by rapid induction of hypothermia and discarded without further examination.

in vivo = settings: Crl:CD-1(ICR) BR, mouse, po; for AUC(0-t): AUC0-24
[4] = 14-day mouse toxicity and toxicokinetic study; settings: both, Crl:CD-1(ICR) BR, in vivo, po
[5] = female, Crl:CD (SD)IGS BR, rat, in vivo, po, 10 mg/kg/day, females, 10 mg/kg/day, Day 0
[6] = female, Crl:CD(SD)IGS BR, rat, in vivo, po, 10 mg/kg/day, females, 10 mg/kg/day, Day 87
[7] = female, Crl:CD(SD)IGS BR, rat, in vivo, po, 25 mg/kg/day, females, 25 mg/kg/day, Day 0
[8] = female, Crl:CD(SD)IGS BR, rat, in vivo, po, 25 mg/kg/day, females, 25 mg/kg/day, Day 87
[9] = female, Crl:CD(SD)IGS BR, rat, in vivo, po, 60 mg/kg/day, females, 60 mg/kg/day, Day 0
[10] = female, Crl:CD(SD)IGS BR, rat, in vivo, po, 60 mg/kg/day, females, 60 mg/kg/day, Day 87
[11] = male, Crl:CD(SD)IGS BR, rat, in vivo, po, 10 mg/kg/day, males, 10 mg/kg/day, Day 0
[12] = male, Crl:CD(SD)IGS BR, rat, in vivo, po, 10 mg/kg/day, males, 10 mg/kg/day, Day 87
[13] = male, Crl:CD(SD)IGS BR, rat, in vivo, po, 25 mg/kg/day, males, 25 mg/kg/day, Day 0
[14] = male, Crl:CD(SD)IGS BR, rat, in vivo, po, 25 mg/kg/day, males, 25 mg/kg/day, Day 87
[15] = male, Crl:CD(SD)IGS BR, rat, in vivo, po, 60 mg/kg/day, males, 60 mg/kg/day, Day 0
[16] = male, Crl:CD(SD)IGS BR, rat, in vivo, po, 60 mg/kg/day, males, 60 mg/kg/day, Day 87

Which results are given for `Clc1ccc([C@]23CNC[C@H]2C3)cc1Cl` [amitifadine, (+)-1-(3,4-dichlorophenyl)-3-azabicyclo[3.1.0]hexane]?
test article-related deaths (number of females) ([1]; 60 mg/kg/day, first week): Three; female vs male AUC0-24 and Cmax difference ([1]; all dose groups): up to 85%; NOAEL at 13 weeks ([1]; both sexes, Crl:CD(SD)IGS BR, rat, in vivo, oral gavage, 13 weeks): 10 mg/kg/day; Tmax [1, 5]: 1 h; AUC(0-t) [1, 5]: 10900 ng·h/mL; AUC(0-t) ([1]; female, Crl:CD(SD)IGS BR, rat, in vivo, oral, 10 mg/kg/day, females, 10 mg/kg/day, Day 87): 14400 ng·h/mL; Cmax [1, 6]: 1850 ng/mL; Tmax [1, 6]: 1 h; Cmax [1, 7]: 2810 ng/mL; Tmax [1, 7]: 2 h; AUC(0-t) [1, 7]: 31000 ng·h/mL; Cmax [1, 8]: 3700 ng/mL; Tmax [1, 8]: 2 h; AUC(0-t) [1, 8]: 30200 ng·h/mL; Cmax [1, 9]: 6600 ng/mL; Tmax [1, 9]: 2 h; AUC(0-t) [1, 9]: 54400 ng·h/mL; Cmax [1, 10]: 6530 ng/mL; Tmax [1, 10]: 2 h; AUC(0-t) [1, 10]: 88100 ng·h/mL; decrease in mean cumulative body weight gain vs control ([1]; females, 25 mg/kg/day): 13%; decrease in mean cumulative body weight gain vs control ([1]; females, 60 mg/kg/day): 13%; AUC(0-t) ([1]; male, Crl:CD(SD)IGS BR, rat, in vivo, oral, 10 mg/kg/day, males, 10 mg/kg/day, Day 87): 8130 ng·h/mL; Cmax [1, 11]: 863 ng/mL; Tmax [1, 11]: 2 h; AUC(0-t) [1, 11]: 5940 ng·h/mL; Cmax [1, 12]: 1120 ng/mL; Tmax [1, 12]: 1 h; Cmax [1, 13]: 2360 ng/mL; Tmax [1, 13]: 2 h; AUC(0-t) [1, 13]: 17400 ng·h/mL; Cmax [1, 14]: 2490 ng/mL; Tmax [1, 14]: 2 h; AUC(0-t) [1, 14]: 22000 ng·h/mL; Cmax [1, 15]: 3680 ng/mL; Tmax [1, 15]: 1 h; AUC(0-t) [1, 15]: 36300 ng·h/mL; Cmax [1, 16]: 5010 ng/mL; Tmax [1, 16]: 1 h; AUC(0-t) [1, 16]: 60100 ng·h/mL; decrease in mean cumulative body weight gain vs control ([1]; males, 25 mg/kg/day): 16%; decrease in mean cumulative body weight gain vs control ([1]; males, 60 mg/kg/day): 30%; AUC(0-t) ([2]; oral, 20 mg/kg/day): 19200 ng·h/mL; NOAEL ([2]; po, oral gavage GD 7-20, read-out: NOAEL for developmental toxicity): 20 mg/kg/day; NOAEL ([2]; po, oral gavage GD 7-20, read-out: NOAEL for maternal toxicity): 10 mg/kg/day; Cmax ([2]; po, 3 mg/kg/day): 309 ng/mL; Tmax ([2]; po, 3 mg/kg/day): 1 h; AUC(0-t) ([2]; po, 3 mg/kg/day): 1320 ng·h/mL; Cmax ([2]; po, 10 mg/kg/day): 1090 ng/mL; Tmax ([2]; po, 10 mg/kg/day): 1 h; AUC(0-t) ([2]; po, 10 mg/kg/day): 5860 ng·h/mL; Cmax ([2]; po, 20 mg/kg/day): 3200 ng/mL; Tmax ([2]; po, 20 mg/kg/day): 1 h; body weight loss ([3]; 34 mg/kg/day, first 4 days): -26 g; decreased food consumption ([3]; 34 mg/kg/day, first 4 days): −50%; NOEL reproductive performance ([3]; female rats): ≥ 34 mg/kg/day; NOEL general toxicity ([3]; female, Crl:CD(SD), rat, in vivo): 9 mg/kg/day; AUC(0-t) (in vivo; female, 10 mg/kg/day): 2490 ng·h/mL; Cmax (in vivo; female, 10 mg/kg/day): 323 ng/mL; Tmax (in vivo; female, 10 mg/kg/day): 2 h; AUC(0-t) (in vivo; female, 30 mg/kg/day): 9920 ng·h/mL; Cmax (in vivo; female, 30 mg/kg/day): 1140 ng/mL; Tmax (in vivo; female, 30 mg/kg/day): 2 h; AUC(0-t) (in vivo; female, 100 mg/kg/day): 20200 ng·h/mL; Tmax (in vivo; female, 100 mg/kg/day): 2 h; Cmax (in vivo; female, 150 mg/kg/day): 4940 ng/mL; Tmax (in vivo; female, 150 mg/kg/day): 2 h; AUC(0-t) (in vivo; male, 10 mg/kg/day): 1970 ng·h/mL; Cmax (in vivo; male, 10 mg/kg/day): 261 ng/mL; Tmax (in vivo; male, 10 mg/kg/day): 1 h; AUC(0-t) (in vivo; male, 30 mg/kg/day): 12800 ng·h/mL; Cmax (in vivo; male, 30 mg/kg/day): 1060 ng/mL; Tmax (in vivo; male, 30 mg/kg/day): 1 h; AUC(0-t) (in vivo; male, 100 mg/kg/day): 22300 ng·h/mL; Cmax (in vivo; male, 100 mg/kg/day): 3900 ng/mL; Tmax (in vivo; male, 100 mg/kg/day): 2 h; AUC(0-t) (in vivo; male, 150 mg/kg/day): 71100 ng·h/mL; Cmax (in vivo; male, 150 mg/kg/day): 5610 ng/mL; Tmax (in vivo; male, 150 mg/kg/day): 1 h; NOAEL at 14 days [4]: 100 mg/kg/day
